Among the data in patent publication US11306092B2, “Amino indole compounds useful as TLR inhibitors” (BRISTOL-MYERS SQUIBB COMPANY, priority 2017, dated 2022) are IC50 values, retold here.

pIC50: −log10 of the molar value.

Common to all, as to assay type: cell-based
Assay [1] has as its target T1, human TLR7 (Homo sapiens, UniProt Q9NYK1).
T1 construct: host or cells: HEK-Blue cells
T1 sequence (Q9NYK1 27-1049): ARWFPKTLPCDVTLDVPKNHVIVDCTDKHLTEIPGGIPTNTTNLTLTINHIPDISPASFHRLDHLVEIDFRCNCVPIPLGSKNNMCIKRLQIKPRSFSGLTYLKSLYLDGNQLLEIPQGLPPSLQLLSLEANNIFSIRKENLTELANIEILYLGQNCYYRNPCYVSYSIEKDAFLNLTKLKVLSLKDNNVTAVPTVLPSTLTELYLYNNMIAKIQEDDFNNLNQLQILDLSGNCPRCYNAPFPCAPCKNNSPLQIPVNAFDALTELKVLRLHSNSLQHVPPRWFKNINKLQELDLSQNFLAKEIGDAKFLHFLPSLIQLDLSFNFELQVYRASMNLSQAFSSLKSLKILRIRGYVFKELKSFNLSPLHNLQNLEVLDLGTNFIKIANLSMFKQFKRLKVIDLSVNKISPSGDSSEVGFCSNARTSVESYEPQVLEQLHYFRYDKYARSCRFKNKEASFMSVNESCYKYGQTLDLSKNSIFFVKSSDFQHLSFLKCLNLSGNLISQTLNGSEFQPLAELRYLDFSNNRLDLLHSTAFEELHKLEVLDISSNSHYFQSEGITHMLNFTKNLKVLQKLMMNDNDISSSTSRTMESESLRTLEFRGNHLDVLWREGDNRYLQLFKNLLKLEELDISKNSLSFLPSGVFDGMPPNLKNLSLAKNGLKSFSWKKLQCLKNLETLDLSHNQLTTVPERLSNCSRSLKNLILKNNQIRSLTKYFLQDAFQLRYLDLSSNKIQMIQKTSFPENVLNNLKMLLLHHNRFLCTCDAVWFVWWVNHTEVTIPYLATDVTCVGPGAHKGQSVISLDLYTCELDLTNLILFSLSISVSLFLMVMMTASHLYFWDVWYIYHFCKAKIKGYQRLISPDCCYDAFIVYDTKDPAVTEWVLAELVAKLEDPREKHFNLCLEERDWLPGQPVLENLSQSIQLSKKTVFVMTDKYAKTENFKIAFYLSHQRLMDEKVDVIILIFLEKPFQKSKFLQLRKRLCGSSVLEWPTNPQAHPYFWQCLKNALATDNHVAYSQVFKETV
Description: TLR7 inhibition reporter assay (HEK-Blue SEAP reporter). The settings on record: HEK-Blue cells overexpressing human TLR7; gardiquimod 7.5 μM; 22 hour incubation. Summed up:
(§1)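 Compound treatment: 30 min, RT, 0.05 nM–50 μM final. Agonist: TLR7 gardiquimod 7.5 μM; TLR8 R848 15.9 μM; TLR9 ODN2006 5 nM. Incubation 22 h, 37 °C, 5% CO2. Readout SEAP, HEK-Blue Detection.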
(In a reporter assay the amount or activity of a reporter protein is the signal.)

Assay [2] concerns the target T2, human TLR8 (Homo sapiens, UniProt Q9NR97).
T2 construct: host or cells: HEK-Blue cells
T2 sequence (Q9NR97 27-1041): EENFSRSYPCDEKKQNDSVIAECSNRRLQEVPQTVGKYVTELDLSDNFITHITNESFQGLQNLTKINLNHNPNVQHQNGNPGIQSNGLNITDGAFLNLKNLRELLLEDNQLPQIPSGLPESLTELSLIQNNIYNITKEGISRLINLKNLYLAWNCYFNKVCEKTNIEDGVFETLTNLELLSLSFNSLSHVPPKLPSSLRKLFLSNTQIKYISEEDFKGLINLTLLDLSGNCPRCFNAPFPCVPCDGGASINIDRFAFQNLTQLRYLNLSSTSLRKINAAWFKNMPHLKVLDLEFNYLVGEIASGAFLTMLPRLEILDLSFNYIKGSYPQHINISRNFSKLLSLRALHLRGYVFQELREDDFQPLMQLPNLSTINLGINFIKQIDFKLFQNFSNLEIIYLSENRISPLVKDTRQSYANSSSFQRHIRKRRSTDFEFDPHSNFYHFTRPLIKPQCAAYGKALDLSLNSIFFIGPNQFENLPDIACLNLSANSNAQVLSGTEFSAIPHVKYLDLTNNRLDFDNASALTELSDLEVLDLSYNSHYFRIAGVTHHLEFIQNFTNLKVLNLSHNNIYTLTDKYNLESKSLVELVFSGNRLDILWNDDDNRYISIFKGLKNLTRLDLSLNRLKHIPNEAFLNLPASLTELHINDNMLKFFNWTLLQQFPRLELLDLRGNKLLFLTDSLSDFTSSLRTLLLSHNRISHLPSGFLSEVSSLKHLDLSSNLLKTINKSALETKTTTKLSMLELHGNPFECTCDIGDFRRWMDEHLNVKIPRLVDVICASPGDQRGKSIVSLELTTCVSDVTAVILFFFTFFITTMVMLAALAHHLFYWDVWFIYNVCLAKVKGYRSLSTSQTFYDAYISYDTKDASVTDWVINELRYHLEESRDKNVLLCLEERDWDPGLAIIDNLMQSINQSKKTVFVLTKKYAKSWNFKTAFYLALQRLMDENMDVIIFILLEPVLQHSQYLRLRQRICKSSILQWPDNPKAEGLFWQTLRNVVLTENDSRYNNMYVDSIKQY
The experiment in a line: TLR8 inhibition reporter assay (HEK-Blue SEAP reporter). The conditions noted are these: HEK-Blue cells overexpressing human TLR8; R848 15.9 μM; 22 hour incubation. Here is the method: TLR7/8/9 Inhibition Reporter Assays
HEK-Blue™-cells (Invivogen) overexpressing human TLR7, TLR8 or TLR9 receptors were used for screening inhibitors of these receptors using an inducible SEAP (secreted embryonic alkaline phosphatase) reporter gene under the control of the IFN-β minimal promoter fused to five NF-κB and AP-1-binding sites. Briefly, cells are seeded into Greiner 384 well plates (15000 cells per well for TLR7, 20,000 for TLR8 and 25,000 for TLR9) and then treated with test compounds in DMSO to yield a final dose response concentration range of 0.05 nM-50 μM. After a 30 minute compound pre-treatment at room temperature, the cells are then stimulated with a TLR7 ligand (gardiquimod at a final concentration of 7.5 μM), TLR8 ligand (R848 at a final concentration of 15.9 μM) or TLR9 ligand (ODN2006 at a final concentration of 5 nM) to activate NF-κB and AP-1 which induce the production of SEAP. After a 22 hour incubation at 37° C., 5% CO2, SEAP levels are determined with the addition of HEK-Blue™ Detection reagent (Invivogen), a cell culture medium that allows for detection of SEAP, according to manufacturer's specifications. The percent inhibition is determined as the % reduction in the HEK-Blue signal present in wells treated with agonist plus DMSO alone compared to wells treated with a known inhibitor.

The target in assay [3] is T3, human TLR9 (Homo sapiens, UniProt Q9NR96).
T3 construct: host or cells: HEK-Blue cells
T3 sequence (Q9NR96 26-1032): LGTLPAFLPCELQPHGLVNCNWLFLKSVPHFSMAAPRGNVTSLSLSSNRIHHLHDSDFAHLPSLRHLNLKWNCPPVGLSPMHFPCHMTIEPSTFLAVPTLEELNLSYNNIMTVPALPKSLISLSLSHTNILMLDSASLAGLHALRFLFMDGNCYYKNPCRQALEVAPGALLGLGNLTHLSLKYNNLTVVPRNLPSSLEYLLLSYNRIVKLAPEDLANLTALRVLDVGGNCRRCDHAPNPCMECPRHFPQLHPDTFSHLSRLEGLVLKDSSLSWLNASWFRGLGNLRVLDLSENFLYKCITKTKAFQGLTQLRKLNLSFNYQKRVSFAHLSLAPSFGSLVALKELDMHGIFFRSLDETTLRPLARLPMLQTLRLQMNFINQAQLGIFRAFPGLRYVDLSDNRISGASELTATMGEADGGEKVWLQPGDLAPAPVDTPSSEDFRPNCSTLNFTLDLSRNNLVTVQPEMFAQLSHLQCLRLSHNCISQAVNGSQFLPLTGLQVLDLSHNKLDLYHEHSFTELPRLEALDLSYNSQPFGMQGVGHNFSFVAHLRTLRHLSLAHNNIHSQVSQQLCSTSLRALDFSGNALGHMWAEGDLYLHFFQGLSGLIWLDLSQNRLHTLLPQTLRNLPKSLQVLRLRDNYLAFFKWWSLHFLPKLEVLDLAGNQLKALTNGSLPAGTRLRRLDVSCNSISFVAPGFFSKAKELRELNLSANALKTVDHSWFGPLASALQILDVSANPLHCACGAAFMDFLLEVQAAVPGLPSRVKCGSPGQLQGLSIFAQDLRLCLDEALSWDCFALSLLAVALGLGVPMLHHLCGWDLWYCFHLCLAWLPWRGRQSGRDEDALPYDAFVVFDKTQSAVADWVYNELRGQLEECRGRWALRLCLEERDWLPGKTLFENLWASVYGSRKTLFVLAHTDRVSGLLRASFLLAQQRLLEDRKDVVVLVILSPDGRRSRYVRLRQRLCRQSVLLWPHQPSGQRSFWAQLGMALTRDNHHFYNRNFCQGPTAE
The experiment in a line: TLR9 inhibition reporter assay (HEK-Blue SEAP reporter). The conditions noted are these: HEK-Blue cells overexpressing human TLR9; ODN2006 5 nM; 22 hour incubation. Put shortly:
as §1

For orientation: pIC50 means the IC50 on a negative log10 scale, so that one unit is a factor of ten. Turning to `COc1ccc(-c2[nH]c3ccc(N4CCC(N(C)C)C4=O)cc3c2C(C)C)cc1OC` (stereo not drawn) [Example 3, 1-(2-(3,4-dimethoxyphenyl)-3-isopropyl-1H-indol-5-yl)-3-(dimethylamino)pyrrolidin-2-one], the pIC50 in assay [1] was 7.36; in assay [2], 7.51; in assay [3], 4.96.
Take `CNC1(CC#N)CCN(c2ccc3[nH]c(-c4ccc(OC)c(OC)c4)c(C(C)C)c3c2)CC1` [Example 112, 2-(1-(2-(3,4-dimethoxyphenyl)-3-isopropyl-1H-indol-5-yl)-4-(methylamino)piperidin-4-yl)acetonitrile]: the pIC50 in assay [1] is 7.21; in assay [2], 8.03; in assay [3], 5.21.
With `COc1ccc(-c2[nH]c3ccc(N4CCC(OC5CCNCC5)CC4)cc3c2C(C)C)cc1OC` [Example 133, 2-(3,4-dimethoxyphenyl)-3-isopropyl-5-(4-(piperidin-4-yloxy)piperidin-1-yl)-1H-indole], the pIC50 in assay [1] is 7.80; in assay [2] it was 7.26; in assay [3] it was 6.47.
As for `CCc1c(-c2ccc(OC)c(OC)c2)[nH]c2cc(C)c(N3CCC4(CC3)CCN(C(C)C)CC4)cc12` [Example 186, 3-(2-(3,4-dimethoxyphenyl)-3-ethyl-6-methyl-1H-indol-5-yl)-9-isopropyl-3,9-diazaspiro[5.5]undecane], the pIC50 in assay [1] is 5.92; in assay [2], 5.80; in assay [3], 5.54.
The like results for `Cc1cc2[nH]c(-c3ccnc4[nH]ncc34)c(C(C)C)c2cc1N1CCNCC1` [Example 130, 4-(3-isopropyl-6-methyl-5-(piperazin-1-yl)-1H-indol-2-yl)-1H-pyrazolo[3,4-b]pyridine] were, in that order, 8.70, 8.11 and 5.94.
Consider `CCc1c(-c2ccc(OC)c(OC)c2)[nH]c2ccc(N3CCN(C4CCN(C)CC4)CC3(C)C)cc12` [Example 172, 2-(3,4-dimethoxyphenyl)-5-(2,2-dimethyl-4-(1-methylpiperidin-4-yl)piperazin-1-yl)-3-ethyl-1H-indole], for which the pIC50 in assay [1] is 7.02; in assay [2] it was 6.88; in assay [3] it was 6.32.
Turning to `CC(C)c1c(-c2ccnc3[nH]ccc23)[nH]c2ccc(N3CCN(C4CCN(C(C)C)CC4)CC3)cc12` [Example 166, 4-(3-isopropyl-5-(4-(1-isopropylpiperidin-4-yl)piperazin-1-yl)-1H-indol-2-yl)-1H-pyrrolo[2,3-b]pyridine], the pIC50 in assay [1] was 8.21; in assay [2], 10.30; in assay [3], 6.50.
For `CCc1c(-c2ccc(OC)c(OC)c2)[nH]c2ccc(N3CCN(C4CCN(C(C)C)CC4)CC3)cc12` [Example 169, 2-(3,4-dimethoxyphenyl)-3-ethyl-5-(4-(1-isopropylpiperidin-4-yl)piperazin-1-yl)-1H-indole], the pIC50 in assay [1] is 7.21; in assay [2] it was 8.00; in assay [3], 6.35.
For `COc1ccc(-c2[nH]c3ccc(NC(=O)C4CNCCO4)cc3c2C(C)C)cc1OC` (stereo not drawn) [Example 15, N-(2-(3,4-dimethoxyphenyl)-3-isopropyl-1H-indol-5-yl)morpholine-2-carboxamide] the same measures were 7.60, 8.47 and 5.13.
Turning to `CCc1c(-c2ccc(OC)c(OC)c2)[nH]c2ccc(N3CCC(C4CCNCC4)CC3)cc12` [Example 131, 5-([4,4′-bipiperidin]-1-yl)-2-(3,4-dimethoxyphenyl)-3-ethyl-1H-indole], the figures for the pIC50 in assay [1], in assay [2] and in assay [3] were 6.73, 6.88 and 6.19, respectively.
Turning to `CCc1c(-c2ccnc(OC)c2)[nH]c2ccc(N3CCN(C4CCN(C)CC4)CC3)cc12` [Example 143, 3-ethyl-2-(2-methoxypyridin-4-yl)-5-(4-(1-methylpiperidin-4-yl)piperazin-1-yl)-1H-indole], the pIC50 in assay [1] was 7.12; in assay [2] it was 8.00; in assay [3] it was 6.08.
